Data set [1] has as its system BT-549. The data set is described as follows: NCI screening panel (SRB). The data set is classed as cell-based. Conditions: Homo sapiens, BT-549 (Breast), 48 h; for CC50: read-out: LC50 (the source's name).
Data set [2] deals with MOLT-4. Kind of data set: NCI screening panel (SRB). The data set is classed as cell-based. The following applies: Homo sapiens, MOLT-4 (Leukemia), 48 h; for CC50: read-out: LC50 (the source's name).
In data set [3] the test system is RPMI-8226. The data set is described as follows: NCI screening panel (SRB). The format is cell-based. Conditions: Homo sapiens, RPMI-8226 (Leukemia), 48 h; for CC50: read-out: LC50 (the source's name).
The subject of data set [4] is PC-3. Kind of data set: NCI screening panel (SRB). The data set is classed as cell-based. Conditions: Homo sapiens, PC-3 (Prostate), 48 h; for CC50: read-out: LC50 (the source's name).
Data set [5] has as its system DU-145. Kind of data set: NCI screening panel (SRB). The following applies: Homo sapiens, DU-145 (Prostate), 48 h; for CC50: read-out: LC50 (the source's name). The format is cell-based.
Data set [6] relates to MALME3-M. The data set is described as follows: NCI screening panel (SRB). The format is cell-based. The following applies: Homo sapiens, Malme-3M, MALME3-M (Melanoma), 48 h; for CC50: read-out: LC50 (the source's name).
Data set [7] concerns the target T1, EPHA1 (Homo sapiens, UniProt P21709).
T1 construct: T7 phage fusion (kinase-tagged phage) or DNA tag for qPCR; made in house; host or cells: E. coli BL21-derived host (T7 phage) or HEK-293
Kind of data set: Binding to EPHA (kinase competition binding, qPCR). Conditions: 300 nM, read-out: % Control @ 300 nM. Here is the method:
(§1) The lysates were centrifuged and filtered to remove cell debris. […] All reactions were performed in polystyrene 96-well plates in a final volume of 0.135 ml.
In general terms: In qPCR the cycle at which signal appears reflects the starting amount.

The target in data set [8] is T2, EPHA4 (Homo sapiens, UniProt P54764).
T2 construct: T7 phage fusion (kinase-tagged phage) or DNA tag for qPCR; made in house; host or cells: E. coli BL21-derived host (T7 phage) or HEK-293
Kind of data set: Binding to EPHA (kinase competition binding, qPCR). The following applies: 300 nM, read-out: % Control @ 300 nM. As to the method: as §1

Data set [9] concerns the target T3, EPHA7 (Homo sapiens, UniProt Q15375).
T3 construct: T7 phage fusion (kinase-tagged phage) or DNA tag for qPCR; made in house; host or cells: E. coli BL21-derived host (T7 phage) or HEK-293
Kind of data set: Binding to EPHA (kinase competition binding, qPCR). Conditions: 300 nM, read-out: % Control @ 300 nM. Here is the method:
as §1

Data set [10] has as its target T4, EPHA2 (Homo sapiens, UniProt P29317).
T4 construct: T7 phage fusion (kinase-tagged phage) or DNA tag for qPCR; made in house; host or cells: E. coli BL21-derived host (T7 phage) or HEK-293
The data set is described as follows: Binding to EPHA (kinase competition binding, qPCR). The following applies: 300 nM, read-out: % Control @ 300 nM. Here is the method: as §1

Data set [11] has as its target T5, EPHA3 (Homo sapiens, UniProt P29320).
T5 construct: T7 phage fusion (kinase-tagged phage) or DNA tag for qPCR; made in house; host or cells: E. coli BL21-derived host (T7 phage) or HEK-293
The data set is described as follows: Binding to EPHA (kinase competition binding, qPCR). The following applies: 300 nM, read-out: % Control @ 300 nM. Here is the method: as §1

In data set [12] the target is T6, EPHA8 (Homo sapiens, UniProt P29322).
T6 construct: T7 phage fusion (kinase-tagged phage) or DNA tag for qPCR; made in house; host or cells: E. coli BL21-derived host (T7 phage) or HEK-293
The data set is described as follows: Binding to EPHA (kinase competition binding, qPCR). The following applies: 300 nM, read-out: % Control @ 300 nM. Here is the method: as §1

In data set [13] the target is T7, EPHA5 (Homo sapiens, UniProt P54756).
T7 construct: T7 phage fusion (kinase-tagged phage) or DNA tag for qPCR; made in house; host or cells: E. coli BL21-derived host (T7 phage) or HEK-293
Kind of data set: Binding to EPHA (kinase competition binding, qPCR). The following applies: 300 nM, read-out: % Control @ 300 nM. As to the method: as §1

Data set [14] can be described thus: Plasma stability. The data set is classed as in vitro ADME. Here is the method:
Thaw the frozen plasma immediately in a 37° C. water bath. Centrifuge plasma at 3,220 g for 10 minutes at room temperature to remove clots and collect supernatant into a fresh tube. Check and record the pH of the plasma. (Note: a. Only use plasma that has been thawed no more than twice since arrival. b. Only use plasma within the range of pH 7 to pH 8.)
The working solutions of test compounds and control compound are prepared in 50% water/50% acetonitrile and DMSO at the concentration of 100 μM, respectively. Propantheline is used as positive control for human and mouse plasma stability assay and mevinolin is used as the positive control for dog and rat plasma stability assay.
Add 5 μL of 100 μM working solution to 495 μL of pre-incubated human, monkey, dog, rat or mouse plasma to reach a final concentration of 1 μM. The final concentration of organic solvents is 0.5%. The assay is performed in duplicate. Incubate the reaction samples at 37° C. water bath with shaking at approximately 60 rpm. Take aliquots of 50 μL from the reaction samples at 0, 15, 30, 45, 60 and 120 minutes. Stop the reaction by adding 300 μL of room temperature quench solution (Acetonitrile containing internal standards (IS, 200 nM Labetalol, 100 nM Alprazolam and 2 μM Ketoprofen)). Vortex for 5 minutes. Centrifuge samples in plate at 3,220 g for 30 minutes at room temperature to precipitate protein. Transfer 100 μL of the supernatant to a new plate. The supernatant may be diluted with 100 μL or 200 μL water according to the LC/MS signal response and peak shape. Mix well and analyze samples using LC/MS/MS.

Data set [15] can be described thus: in vitro. The following applies: human, Caco-2, pH 7.4. Here is the method:
At this stage of growth, cell monolayers were fully polarized and differentiated.
The permeability assay buffer was Hanks Balanced Salt Solution containing 10 mM HEPES and 15 mM glucose at a pH of 7.4. The dosing buffer contained 5 μM metoprolol (positive control), 5 μM atenolol (negative control) and 100 μM lucifer yellow. The buffer in the receiver chamber also contained 1% bovine serum albumin (BSA). The dosing solution concentration was 5 μM in the assay buffer. Digoxin (20 μM) was used as Pgp substrate control.
The known Pgp inhibitor was co-dosed at 50 μM with compound at 5 μM.
Cell monolayers were dosed on the apical side (A-to-B) or basolateral side (B-to-A) and incubated at 37° C. in a shaker (65 rpm). Samples were taken from the donor and receiver chambers at 120 minutes. Each determination was performed in duplicate.
Narrow-window mass extraction LC/MS analysis was performed for all samples from this study using a Waters Xevo quadrupole time-of-flight (QTof) mass spectrometer, to determine relative peak areas of parent compound. The percent of transported drug was calculated based on these peak areas, relative to the initial, dosing concentration.

The values that follow come from patent publication US20190016689A1, “NOVEL FLUORINATED QUINAZOLINE DERIVATIVES AS EGFR INHIBITORS” (TRILLIUM THERAPEUTICS INC., priority 2016, published 2019).

T1 sequence (P21709 26-976): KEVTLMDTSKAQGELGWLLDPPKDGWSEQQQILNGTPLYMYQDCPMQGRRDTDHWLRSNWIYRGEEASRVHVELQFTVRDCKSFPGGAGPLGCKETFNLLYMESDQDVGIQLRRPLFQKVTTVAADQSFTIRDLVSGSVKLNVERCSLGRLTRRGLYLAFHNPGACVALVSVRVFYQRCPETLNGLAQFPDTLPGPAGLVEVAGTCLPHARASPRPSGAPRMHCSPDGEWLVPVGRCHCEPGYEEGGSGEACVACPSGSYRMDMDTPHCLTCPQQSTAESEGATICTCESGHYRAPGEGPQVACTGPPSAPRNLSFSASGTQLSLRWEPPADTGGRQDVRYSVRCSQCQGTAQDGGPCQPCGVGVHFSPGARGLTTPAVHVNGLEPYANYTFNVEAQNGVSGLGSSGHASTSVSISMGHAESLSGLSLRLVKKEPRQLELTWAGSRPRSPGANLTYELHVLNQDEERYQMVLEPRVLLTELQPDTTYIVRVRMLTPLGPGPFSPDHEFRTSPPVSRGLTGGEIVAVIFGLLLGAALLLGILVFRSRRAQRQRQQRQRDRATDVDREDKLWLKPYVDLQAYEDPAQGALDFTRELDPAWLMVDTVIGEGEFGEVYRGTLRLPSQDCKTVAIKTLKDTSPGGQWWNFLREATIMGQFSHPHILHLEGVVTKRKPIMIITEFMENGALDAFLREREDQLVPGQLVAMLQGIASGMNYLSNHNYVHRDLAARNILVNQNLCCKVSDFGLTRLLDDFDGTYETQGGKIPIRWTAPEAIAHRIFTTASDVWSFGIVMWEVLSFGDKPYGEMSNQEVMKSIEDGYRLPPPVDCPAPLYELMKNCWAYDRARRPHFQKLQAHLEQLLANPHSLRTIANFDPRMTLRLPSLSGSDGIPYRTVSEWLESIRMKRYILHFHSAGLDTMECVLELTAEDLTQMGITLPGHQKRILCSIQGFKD
T7 sequence (P54756 25-1037): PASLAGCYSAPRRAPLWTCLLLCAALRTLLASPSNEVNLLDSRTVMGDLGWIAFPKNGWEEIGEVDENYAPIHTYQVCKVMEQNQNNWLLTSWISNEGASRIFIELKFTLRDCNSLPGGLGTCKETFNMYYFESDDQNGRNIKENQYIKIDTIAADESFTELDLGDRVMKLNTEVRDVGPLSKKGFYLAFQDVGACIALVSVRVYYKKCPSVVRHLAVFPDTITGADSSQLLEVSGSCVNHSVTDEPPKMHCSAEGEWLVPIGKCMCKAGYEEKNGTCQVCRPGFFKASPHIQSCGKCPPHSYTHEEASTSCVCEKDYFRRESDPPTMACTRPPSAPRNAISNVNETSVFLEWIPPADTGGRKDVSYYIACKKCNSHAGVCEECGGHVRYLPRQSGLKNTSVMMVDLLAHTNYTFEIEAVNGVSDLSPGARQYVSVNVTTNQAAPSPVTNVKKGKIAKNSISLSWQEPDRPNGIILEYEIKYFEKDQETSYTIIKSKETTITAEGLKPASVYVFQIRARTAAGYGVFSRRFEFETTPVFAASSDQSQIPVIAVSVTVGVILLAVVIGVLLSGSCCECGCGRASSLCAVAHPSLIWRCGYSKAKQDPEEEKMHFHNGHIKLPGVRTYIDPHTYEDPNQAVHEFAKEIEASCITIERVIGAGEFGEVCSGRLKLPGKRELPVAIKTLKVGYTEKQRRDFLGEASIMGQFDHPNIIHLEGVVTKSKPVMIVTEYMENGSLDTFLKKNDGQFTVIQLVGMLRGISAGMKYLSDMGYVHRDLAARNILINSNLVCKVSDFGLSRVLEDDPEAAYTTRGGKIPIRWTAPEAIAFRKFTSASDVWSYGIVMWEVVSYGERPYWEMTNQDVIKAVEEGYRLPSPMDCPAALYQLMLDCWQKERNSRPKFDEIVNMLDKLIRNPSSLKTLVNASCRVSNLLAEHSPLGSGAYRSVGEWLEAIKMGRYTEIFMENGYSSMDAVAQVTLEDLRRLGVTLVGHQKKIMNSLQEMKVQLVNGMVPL
T2 sequence (P54764 20-986): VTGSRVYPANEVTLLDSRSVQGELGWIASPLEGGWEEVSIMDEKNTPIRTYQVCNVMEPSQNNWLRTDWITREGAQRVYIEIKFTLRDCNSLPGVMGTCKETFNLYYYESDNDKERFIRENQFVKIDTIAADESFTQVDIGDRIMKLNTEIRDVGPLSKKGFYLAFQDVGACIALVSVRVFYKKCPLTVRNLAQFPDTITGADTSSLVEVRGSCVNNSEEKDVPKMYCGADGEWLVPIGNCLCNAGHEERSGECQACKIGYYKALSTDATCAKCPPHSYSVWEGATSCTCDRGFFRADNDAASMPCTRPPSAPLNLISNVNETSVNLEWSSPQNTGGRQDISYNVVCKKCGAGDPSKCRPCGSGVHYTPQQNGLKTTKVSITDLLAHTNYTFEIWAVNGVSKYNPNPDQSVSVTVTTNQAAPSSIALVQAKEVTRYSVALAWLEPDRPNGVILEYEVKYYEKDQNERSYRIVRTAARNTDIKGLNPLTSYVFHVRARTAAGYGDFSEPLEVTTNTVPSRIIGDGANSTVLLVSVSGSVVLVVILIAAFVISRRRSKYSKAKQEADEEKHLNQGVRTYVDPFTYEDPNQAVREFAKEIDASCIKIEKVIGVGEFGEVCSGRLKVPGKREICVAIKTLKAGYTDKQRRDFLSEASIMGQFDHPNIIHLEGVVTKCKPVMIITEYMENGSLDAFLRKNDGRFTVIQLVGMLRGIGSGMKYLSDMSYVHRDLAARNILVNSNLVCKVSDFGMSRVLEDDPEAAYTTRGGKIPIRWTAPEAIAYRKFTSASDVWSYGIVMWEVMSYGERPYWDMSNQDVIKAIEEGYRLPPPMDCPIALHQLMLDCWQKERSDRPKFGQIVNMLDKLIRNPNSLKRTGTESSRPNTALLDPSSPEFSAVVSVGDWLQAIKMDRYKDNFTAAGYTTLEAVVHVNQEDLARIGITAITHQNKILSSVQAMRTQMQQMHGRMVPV
T6 sequence (P29322 28-1005): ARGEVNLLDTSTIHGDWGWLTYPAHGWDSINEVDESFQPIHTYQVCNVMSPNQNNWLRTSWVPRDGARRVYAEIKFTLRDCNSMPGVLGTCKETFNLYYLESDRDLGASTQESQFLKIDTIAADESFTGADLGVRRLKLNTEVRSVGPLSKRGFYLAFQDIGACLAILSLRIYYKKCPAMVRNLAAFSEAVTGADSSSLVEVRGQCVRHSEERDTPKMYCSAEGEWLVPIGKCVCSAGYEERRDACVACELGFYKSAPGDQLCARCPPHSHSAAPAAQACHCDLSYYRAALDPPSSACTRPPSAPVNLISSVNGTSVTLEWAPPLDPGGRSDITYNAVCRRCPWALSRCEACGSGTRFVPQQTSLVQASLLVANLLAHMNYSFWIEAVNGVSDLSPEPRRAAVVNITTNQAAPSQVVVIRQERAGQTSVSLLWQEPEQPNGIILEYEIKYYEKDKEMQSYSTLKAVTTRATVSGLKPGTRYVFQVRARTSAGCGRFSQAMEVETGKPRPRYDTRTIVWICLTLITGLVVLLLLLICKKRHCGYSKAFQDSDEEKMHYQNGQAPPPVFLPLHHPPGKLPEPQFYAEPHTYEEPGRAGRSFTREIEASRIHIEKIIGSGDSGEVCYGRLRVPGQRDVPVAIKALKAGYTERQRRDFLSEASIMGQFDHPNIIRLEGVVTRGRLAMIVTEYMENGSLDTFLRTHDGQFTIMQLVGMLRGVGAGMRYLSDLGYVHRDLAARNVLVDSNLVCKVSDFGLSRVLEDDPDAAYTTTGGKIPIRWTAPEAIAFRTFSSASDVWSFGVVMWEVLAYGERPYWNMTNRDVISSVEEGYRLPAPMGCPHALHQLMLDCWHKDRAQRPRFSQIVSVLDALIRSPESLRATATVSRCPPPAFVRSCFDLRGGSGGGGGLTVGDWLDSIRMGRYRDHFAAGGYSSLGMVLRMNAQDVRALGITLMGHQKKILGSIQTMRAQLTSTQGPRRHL
T5 sequence (P29320 21-983): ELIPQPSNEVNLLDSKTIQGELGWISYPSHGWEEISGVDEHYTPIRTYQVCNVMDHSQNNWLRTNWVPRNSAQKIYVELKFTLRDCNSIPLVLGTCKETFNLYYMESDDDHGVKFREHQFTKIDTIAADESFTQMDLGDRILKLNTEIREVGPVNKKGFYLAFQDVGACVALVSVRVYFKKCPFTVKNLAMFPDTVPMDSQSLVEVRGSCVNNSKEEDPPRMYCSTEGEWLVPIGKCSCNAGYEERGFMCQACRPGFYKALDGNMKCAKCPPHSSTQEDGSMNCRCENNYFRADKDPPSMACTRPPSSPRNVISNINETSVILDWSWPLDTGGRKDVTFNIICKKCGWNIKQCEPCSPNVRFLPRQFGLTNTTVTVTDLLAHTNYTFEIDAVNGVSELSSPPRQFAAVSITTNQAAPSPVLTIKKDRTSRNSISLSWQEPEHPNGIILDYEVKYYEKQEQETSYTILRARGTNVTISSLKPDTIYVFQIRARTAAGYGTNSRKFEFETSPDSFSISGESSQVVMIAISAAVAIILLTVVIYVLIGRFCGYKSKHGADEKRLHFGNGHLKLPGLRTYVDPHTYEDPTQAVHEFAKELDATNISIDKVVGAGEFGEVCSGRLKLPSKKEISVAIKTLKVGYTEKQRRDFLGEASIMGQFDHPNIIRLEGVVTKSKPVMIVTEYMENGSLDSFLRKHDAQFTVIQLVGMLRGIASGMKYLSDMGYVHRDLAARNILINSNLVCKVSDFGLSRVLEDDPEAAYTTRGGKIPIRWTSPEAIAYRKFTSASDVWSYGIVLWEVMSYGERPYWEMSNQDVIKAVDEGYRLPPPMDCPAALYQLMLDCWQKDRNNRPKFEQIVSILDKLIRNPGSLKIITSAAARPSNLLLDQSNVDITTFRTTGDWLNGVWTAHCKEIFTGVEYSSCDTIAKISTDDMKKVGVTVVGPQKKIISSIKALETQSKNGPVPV

`CN(C)C/C=C/C(=O)Nc1cc2c(Nc3ccc(F)c(Cl)c3F)ncnc2cc1OCCOC(F)F.O=C(O)/C=C\C(=O)O.O=C(O)/C=C\C(=O)O` [Example I-9-MA, (E)-N-[4-(3-chloro-2,4-difluoro-anilino)-7-[2-(difluoromethoxy)ethoxy]quinazolin-6-yl]-4-(dimethylamino)but-2-enamide di-maleic acid salt]: the GI50 came to 1690 nM in data set [1]; 849 nM in [2]; 1290 nM in [3]; 2550 nM in data set [4]; 140 nM in data set [5]; 1420 nM in data set [6]. The CC50 was 32200 nM in [1]; 47500 nM in data set [2]; above 100000 nM in data set [3]; 58500 nM in data set [4]; 20800 nM in data set [5]; 6970 nM in data set [6]. The remaining binding at 0.3 µM worked out at 34% in [7]; 51% in data set [8]; 56% in data set [9]; 92% in [10]; 46% in [11]; 40% in data set [12]. Besides, the remaining binding at 0.3 µM in data set [13] stood at 51%.
Turning to `O=C(/C=C/CN1CCCCC1)Nc1cc2c(Nc3ccc(F)c(Cl)c3F)ncnc2cc1OCCOC(F)F.O=C(O)/C=C\C(=O)O.O=C(O)/C=C\C(=O)O` [Example I-10-MA, (E)-N-[4-(3-chloro-2,4-difluoro-anilino)-7-[2-(difluoromethoxy)ethoxy]quinazolin-6-yl]-4-(1-piperidyl)but-2-enamide di-maleic acid salt], the 50% growth inhibitory concentration (GI50) was 2470 nM in data set [1]; 1120 nM in data set [2]; 1640 nM in data set [3]; 2380 nM in data set [4]; 266 nM in data set [5]; 1450 nM in data set [6]. Further, the CC50 in data set [1] was found to be 36200 nM; in [2] it was 98400 nM; in data set [3], 58900 nM; in data set [4], 51000 nM; in [5], 37800 nM; in data set [6], 7440 nM. Also, the remaining binding at 0.3 µM worked out at 24% in [7]; 50% in [8]; 40% in data set [9]; 80% in data set [10]; 45% in data set [11]; 33% in data set [12]. Moreover, in [13], the remaining binding at 0.3 µM was 49%.
Regarding `CN(C)C/C=C/C(=O)Nc1cc2c(Nc3cccc(Cl)c3F)ncnc2cc1OCCOC(F)F.O=C(O)/C=C\C(=O)O` [Example I-5-MA, (E)-N-[4-(3-chloro-2-fluoro-anilino)-7-[2-(difluoromethoxy)ethoxy]quinazolin-6-yl]-4-(dimethylamino)but-2-enamide dimaleic acid salt], in data set [14] (60 min), the “Dog Remaining Percentage (%)” value is recorded as 104.57%, the “Human Remaining Percentage (%)” value was found to be 101.95%, the “Monkey Remaining Percentage (%)” value is given as 85.79% and the “Mouse Remaining Percentage (%)” value is 95.45%. In addition, the “Rat Remaining Percentage (%)” value in data set [14] (60 min) came out at 99.28%. For the same compound, in data set [14] (120 min), the “Dog Remaining Percentage (%)” value is reported as 102.13%, the “Human Remaining Percentage (%)” value is listed as 95.45%, the “Monkey Remaining Percentage (%)” value came to 83.32% and the “Mouse Remaining Percentage (%)” value was determined as 105.25%. In data set [14] (120 min), the “Rat Remaining Percentage (%)” value is 95.14%. In addition, in [15], the apparent permeability from apical to basolateral (Papp A→B) at 120 min, 5 µM was determined as 13.5 ×10⁻⁶ cm/s and the Papp B→A at 120 min, 5 µM came to 6.52 ×10⁻⁶ cm/s.
As to `CN(C)C/C=C/C(=O)Nc1cc2c(Nc3ccc(F)c(Cl)c3)ncnc2cc1O[C@H]1CCOC1` [Afatinib, reference compound], in [14] (60 min), the “Dog Remaining Percentage (%)” value turned out to be 111.61%, the “Human Remaining Percentage (%)” value stood at 94.78%, the “Monkey Remaining Percentage (%)” value was 102.98% and the “Mouse Remaining Percentage (%)” value was 101.81%. In data set [14] (60 min), the “Rat Remaining Percentage (%)” value came out at 101.43%. For the same compound, in data set [14] (120 min), the “Dog Remaining Percentage (%)” value is on record as 102.15%, the “Human Remaining Percentage (%)” value came to 98.62%, the “Monkey Remaining Percentage (%)” value is given as 97.24% and the “Mouse Remaining Percentage (%)” value turned out to be 106.59%. Moreover, the “Rat Remaining Percentage (%)” value in [14] (120 min) came to 95.31%. In [15], the Papp A→B at 120 min, 5 µM worked out at 0.81 ×10⁻⁶ cm/s and the Papp B→A at 120 min, 5 µM is 16 ×10⁻⁶ cm/s.

What is called GI50 is the concentration at which growth is held to half of that of the control. In general, Papp A→B refers to the apparent permeability from the apical to the basolateral side of a cell layer. Broadly, the Papp B→A is how fast a substance crosses the layer from the basolateral side.
